This is an account of results in patent US7723372B2, “Spiroindolinone derivatives” (Hoffman-La Roche Inc., priority 2008, dated 2010).

interaction between p53 and MDM2 proteins (recombinant GST-tagged MDM2, biotinylated p53 peptide), sequence (Q00987 whole entry): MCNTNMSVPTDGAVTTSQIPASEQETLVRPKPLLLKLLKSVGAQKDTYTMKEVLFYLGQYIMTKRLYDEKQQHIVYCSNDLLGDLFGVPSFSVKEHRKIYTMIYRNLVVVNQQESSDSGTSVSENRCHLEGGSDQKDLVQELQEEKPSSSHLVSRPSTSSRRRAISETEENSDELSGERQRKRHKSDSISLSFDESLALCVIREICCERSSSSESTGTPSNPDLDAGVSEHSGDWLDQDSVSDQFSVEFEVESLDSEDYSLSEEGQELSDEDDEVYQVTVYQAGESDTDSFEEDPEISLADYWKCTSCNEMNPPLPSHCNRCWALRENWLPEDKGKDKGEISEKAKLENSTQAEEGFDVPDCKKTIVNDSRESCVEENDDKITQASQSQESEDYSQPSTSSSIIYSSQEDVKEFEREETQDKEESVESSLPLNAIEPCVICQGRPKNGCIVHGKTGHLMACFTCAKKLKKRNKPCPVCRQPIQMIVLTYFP

For the test, the target named is interaction between p53 and MDM2 proteins (recombinant GST-tagged MDM2, biotinylated p53 peptide) (Homo sapiens, UniProt Q00987). Briefly: HTRF assay of inhibition of the p53-MDM2 interaction. The class given is binding. The settings on record: 0.02% BSA. The protocol:
The ability of the compounds to inhibit the interaction between p53 and MDM2 proteins was measured by an HTRF (homogeneous time-resolved fluorescence) assay in which recombinant GST-tagged MDM2 binds to a peptide that resembles the MDM2-interacting region of p53 (Lane et al.), Binding of GST-MDM2 protein and p53-peptide (biotinylated on its N-terminal end) is registered by the FRET (fluorescence resonance energy transfer) between Europium (Eu)-labeled ant-GST antibody and streptavidin-conjugated Allophycocyanin (APC).
[…] Add 10 uL diluted compounds (1:5 dilution in reaction buffer) to each well, mix by shaking. Add 20 uL biotinylated p53 peptide (180 nM working solution) in reaction buffer to each well and mix on shaker. Incubate at 37° C. for 1 h. Add 20 uL streptavidin-APC and Eu-anti-GST antibody mixture (6 nM Eu-anti-GST and 60 nM streptavidin-APC working solution) in TBS buffer with 0.2% BSA, shake at room temperature for 30 minutes and read using a TRF-capable plate reader at 665 and 615 nm (Victor 5, Perkin ElmerWallac). If not specified, the reagents were purchased from Sigma Chemical Co.
On the technique in general: TR-FRET usually uses a lanthanide donor and a delayed reading to cut background.
For the compound `O=C1C[C@@H](c2cccc(Cl)c2)[C@@]2(C=C1c1ccc(F)cc1O)C(=O)Nc1cc(Cl)ccc12` (racemic) [Example 18, rac-(1R,6S)-6′-chloro-6-(3-chlorophenyl)-3-(4-fluoro-2-hydroxyphenyl)spiro[2-cyclohexene-1,3′-[3H]indole]-2′,4(1′H)-dione], the IC50 (as a rule, the point on the concentration scale where inhibition reaches its midpoint) came out at 2.99 µM.

As to `C/C=C/C1=CC(=O)C[C@@H](c2cccc(Cl)c2)[C@]12C(=O)Nc1cc(Cl)ccc12` (racemic) [Example 10 (Compound B), rac-(1S,6S)-6′-chloro-6-(3-chlorophenyl)-2-(E)-(1-propenyl)spiro[2-cyclohexene-1,3′-[3H]indole]-2′,4(1′H)-dione], the half-inhibitory concentration (IC50) came to 5.9 µM.

As for `Cc1ccc(F)cc1C1=C[C@@]2(C(=O)Nc3cc(Cl)ccc32)[C@H](c2cccc(Cl)c2)C[C@@H]1O` (racemic) [Example 5, rac-(1R, 4S, 6S)-6′-chloro-6-(3-chlorophenyl)-3-(5-fluoro-2-methylphenyl)-4-hydroxyspiro[2-cyclohexene-1,3′-[3H]indol]-2′(1′H)-one], the IC50 was found to be 1.6 µM.

With `O=C1C[C@@H](c2cccc(Cl)c2)[C@@]2(C=C1c1cc(F)ccc1O)C(=O)Nc1cc(Cl)ccc12` (racemic) [Example 17, rac-(1R,6S)-6′-chloro-6-(3-chlorophenyl)-3-(5-fluoro-2-hydroxyphenyl)spiro[2-cyclohexene-1,3′-[3H]indole]-2′,4(1′H)-dione], the half-inhibitory concentration (IC50) turned out to be 1.66 µM.

As to `C=Cc1ccccc1C1=CC(=O)C[C@@H](c2cccc(Cl)c2)[C@]12C(=O)Nc1cc(Cl)ccc12` (racemic) [Example 44 (Compound A), rac-(1R,6S)-6′-chloro-6-(3-chlorophenyl)-2-(2-ethylenephenyl)spiro[2-cyclohexene-1,3′-[3H]indole]-2′,4(1′H)-dione], the IC50 was found to be 1.39 µM.
